Assay results as given in patent publication US11149037B2, “Pyrazole MAGL inhibitors” (H. Lundbeck A/S, priority 2017, dated 2021).

Legend:
Format in all cases: biochemical
[1] = target: FAAH (Homo sapiens (Human), UniProt O00519); test: In vitro competitive activity-based protein profiling, human proteomes (prefrontal cortex or PC3 cell membrane fractions); conditions: human proteome; for inhibition at 1 µM: read-out: FAAH % inh. 1 μM (human)
Summary of the method: (§1)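 Activity of MAGL and FAAH was quantified from fluorescent gel band intensities. Beforehand, inhibitors at several concentrations competed against subsequent probe labelling (FP-Rh, JW912 or HT-01) in species-matched proteomes, each step 30 min at 37° C.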

[2] = target: MAGL (Homo sapiens (Human), UniProt Q99685); test: as above; conditions: human proteome; for inhibition at 1 µM: read-out: MAGL % inh. 1 μM (human)
Sequence of MAGL (Homo sapiens (Human), UniProt Q99685) (Q99685 whole entry): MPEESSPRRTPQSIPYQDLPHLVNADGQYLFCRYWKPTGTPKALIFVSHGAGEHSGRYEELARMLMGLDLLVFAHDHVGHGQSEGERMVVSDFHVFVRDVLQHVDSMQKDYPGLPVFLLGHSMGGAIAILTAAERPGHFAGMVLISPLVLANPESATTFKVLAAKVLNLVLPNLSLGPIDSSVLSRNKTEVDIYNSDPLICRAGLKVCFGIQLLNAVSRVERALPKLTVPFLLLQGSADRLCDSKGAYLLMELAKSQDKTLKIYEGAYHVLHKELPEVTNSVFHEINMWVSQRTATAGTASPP
Summary of the method: as §1

[3] = target: FAAH (Mus musculus (Mouse), UniProt O08914); test: In vitro competitive activity-based protein profiling, mouse proteomes (brain membrane fraction or cell lysates); conditions: mouse proteome, read-out: FAAH % inh. 1 μM (mouse)
Sequence of FAAH (Mus musculus (Mouse), UniProt O08914) (O08914 whole entry): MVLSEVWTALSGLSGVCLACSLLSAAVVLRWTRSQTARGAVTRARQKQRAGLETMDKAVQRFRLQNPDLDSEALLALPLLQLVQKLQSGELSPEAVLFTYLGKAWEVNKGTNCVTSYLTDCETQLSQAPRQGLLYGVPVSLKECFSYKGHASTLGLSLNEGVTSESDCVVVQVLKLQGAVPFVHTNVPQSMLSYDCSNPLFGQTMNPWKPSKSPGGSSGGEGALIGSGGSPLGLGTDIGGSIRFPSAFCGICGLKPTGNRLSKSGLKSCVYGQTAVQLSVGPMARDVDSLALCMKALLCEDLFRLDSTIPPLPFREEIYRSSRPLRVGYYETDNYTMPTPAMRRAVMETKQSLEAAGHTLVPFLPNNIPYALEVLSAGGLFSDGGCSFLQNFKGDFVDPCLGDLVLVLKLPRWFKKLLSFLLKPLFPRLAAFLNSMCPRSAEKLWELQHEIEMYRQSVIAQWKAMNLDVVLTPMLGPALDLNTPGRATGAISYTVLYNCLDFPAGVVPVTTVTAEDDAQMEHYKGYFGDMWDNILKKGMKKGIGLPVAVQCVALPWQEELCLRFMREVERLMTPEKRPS
Summary of the method: as §1

[4] = target: MAGL (Mus musculus (Mouse), UniProt O35678); test: as above; conditions: mouse proteome, read-out: MAGL % inh. 1 μM (mouse)
Sequence of MAGL (Mus musculus (Mouse), UniProt O35678) (O35678 whole entry): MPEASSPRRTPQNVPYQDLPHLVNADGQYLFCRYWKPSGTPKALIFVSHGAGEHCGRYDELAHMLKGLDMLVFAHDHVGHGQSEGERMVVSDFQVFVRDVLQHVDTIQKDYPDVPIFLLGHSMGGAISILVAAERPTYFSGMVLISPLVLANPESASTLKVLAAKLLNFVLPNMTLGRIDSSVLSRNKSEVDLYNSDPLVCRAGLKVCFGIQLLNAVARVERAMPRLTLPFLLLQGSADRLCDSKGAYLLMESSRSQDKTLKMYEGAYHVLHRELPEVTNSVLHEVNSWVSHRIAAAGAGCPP
Summary of the method: as §1

Sequence of FAAH (Homo sapiens (Human), UniProt O00519) (O00519 whole entry): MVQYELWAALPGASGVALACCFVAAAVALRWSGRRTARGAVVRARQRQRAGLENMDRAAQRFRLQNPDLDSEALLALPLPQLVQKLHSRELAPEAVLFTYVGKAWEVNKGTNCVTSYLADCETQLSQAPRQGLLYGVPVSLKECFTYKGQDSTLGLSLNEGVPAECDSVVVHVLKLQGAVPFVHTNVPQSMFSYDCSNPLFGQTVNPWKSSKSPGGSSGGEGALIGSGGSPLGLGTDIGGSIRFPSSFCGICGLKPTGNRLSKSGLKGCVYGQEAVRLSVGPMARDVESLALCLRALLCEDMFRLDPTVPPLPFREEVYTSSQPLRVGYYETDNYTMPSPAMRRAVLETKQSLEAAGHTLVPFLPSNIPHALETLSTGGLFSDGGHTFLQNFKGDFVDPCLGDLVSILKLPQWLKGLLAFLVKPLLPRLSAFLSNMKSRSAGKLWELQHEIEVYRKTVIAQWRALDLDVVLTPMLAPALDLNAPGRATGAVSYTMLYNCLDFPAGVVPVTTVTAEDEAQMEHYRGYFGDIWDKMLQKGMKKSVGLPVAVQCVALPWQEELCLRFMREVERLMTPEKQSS

Structure (SMILES)	inhibition at 1 µM [1] [%]	IC50 [1] [µM]	inhibition at 1 µM [2] [%]	IC50 [2] [µM]	inhibition at 1 µM [3] [%]	inhibition at 1 µM [4] [%]	inhibition at 10 µM ([2]; 10 μM, read-out: MAGL % inh. (human) @ 10 μM) [%]
CN(Cc1cc(Cl)ccc1C(F)(F)F)[C@H]1C[C@@H]2CN(C(=O)n3ccc(NS(C)(=O)=O)n3)C[C@@H]2C1 [Example 51, N-(1-((3aR,5r,6aS)-5-((5-Chloro-2-(trifluoromethyl)benzyl)(methyl)amino)octahydrocyclopenta[c]pyrrole-2-carbonyl)-1H-pyrazol-3-yl)methanesulfonamide]	> 75	0.1 to 1	> 75	< 0.1	> 75	> 75	–
CS(=O)(=O)Nc1ccn(C(=O)N2CCN(Cc3cc4ccc(C(F)(F)F)cc4s3)CC2)n1 [Example 52, N-(1-(4-((6-(Trifluoromethyl)benzo[b]thiophen-2-yl)methyl)piperazine-1-carbonyl)-1H-pyrazol-3-yl)methanesulfonamide]	0 to 25	1 to 10	> 75	< 0.1	0 to 25	> 75	–
CS(=O)(=O)Nc1ccn(C(=O)N2CCC3(CCCN3Cc3cc4ccc(C(F)(F)F)cc4s3)CC2)n1 [Example 53, N-(1-(1-((6-(Trifluoromethyl)benzo[b]thiophen-2-yl)methyl)-1,8-diazaspiro[4.5]decane-8-carbonyl)-1H-pyrazol-3-yl)methanesulfonamide]	0 to 25	–	–	–	0 to 25	0 to 25	> 75
CS(=O)(=O)Nc1ccn(C(=O)N2CCN(Cc3cc4ccccc4s3)CC2)n1 [Example 54, N-(1-(4-(Benzo[b]thiophen-2-ylmethyl)piperazine-1-carbonyl)-1H-pyrazol-3-yl)methanesulfonamide]	0 to 25	–	> 75	–	0 to 25	> 75	–
CS(=O)(=O)Nc1ccn(C(=O)N2CCN(Cc3cc4ccccc4[nH]3)CC2)n1 [Example 55, N-(1-(4-((1H-Indol-2-yl)methyl)piperazine-1-carbonyl)-1H-pyrazol-3-yl)methanesulfonamide]	0 to 25	–	> 75	–	0 to 25	> 75	–
CS(=O)(=O)Nc1ccn(C(=O)N2CCN(Cc3nc4ccccc4s3)CC2)n1 [Example 56, N-(1-(4-(Benzo[d]thiazol-2-ylmethyl)piperazine-1-carbonyl)-1H-pyrazol-3-yl)methanesulfonamide]	0 to 25	–	> 75	–	0 to 25	> 75	–
Cc1c(CN2CCN(C(=O)n3ccc(NS(C)(=O)=O)n3)CC2)sc2ccccc12 [Example 57, N-(1-(4-((3-Methylbenzo[b]thiophen-2-yl)methyl)piperazine-1-carbonyl)-1H-pyrazol-3-yl)methanesulfonamide]	0 to 25	–	> 75	–	0 to 25	> 75	–
CS(=O)(=O)Nc1ccn(C(=O)N2CCC3(CCN(Cc4cc(N5CCOCC5)cc(C(F)(F)F)c4)C3)CC2)n1 [Example 59, N-(1-(2-(3-Morpholino-5-(trifluoromethyl)benzyl)-2,8-diazaspiro[4.5]decane-8-carbonyl)-1H-pyrazol-3-yl)methanesulfonamide]	0 to 25	–	> 75	–	0 to 25	> 75	–
CS(=O)(=O)Nc1ccn(C(=O)N2CCC3(CCN(Cc4ccc(C(F)(F)F)cc4N4CCC(F)CC4)CC3)C2)n1 [Example 60, N-(1-(8-(2-(4-Fluoropiperidin-1-yl)-4-(trifluoromethyl)benzyl)-2,8-diazaspiro[4.5]decane-2-carbonyl)-1H-pyrazol-3-yl)methanesulfonamide]	0 to 25	–	> 75	–	0 to 25	> 75	–
